Laboratory results taken from BindingDB's records for doi:10.1021/jm950876u (Universit&#224, 1996).

Target: Xanthine dehydrogenase/oxidase (Homo sapiens, UniProt P47989)
Test: Inhibitory activity against Xanthine Oxidase

Xanthine dehydrogenase/oxidase, sequence (P47989 whole entry): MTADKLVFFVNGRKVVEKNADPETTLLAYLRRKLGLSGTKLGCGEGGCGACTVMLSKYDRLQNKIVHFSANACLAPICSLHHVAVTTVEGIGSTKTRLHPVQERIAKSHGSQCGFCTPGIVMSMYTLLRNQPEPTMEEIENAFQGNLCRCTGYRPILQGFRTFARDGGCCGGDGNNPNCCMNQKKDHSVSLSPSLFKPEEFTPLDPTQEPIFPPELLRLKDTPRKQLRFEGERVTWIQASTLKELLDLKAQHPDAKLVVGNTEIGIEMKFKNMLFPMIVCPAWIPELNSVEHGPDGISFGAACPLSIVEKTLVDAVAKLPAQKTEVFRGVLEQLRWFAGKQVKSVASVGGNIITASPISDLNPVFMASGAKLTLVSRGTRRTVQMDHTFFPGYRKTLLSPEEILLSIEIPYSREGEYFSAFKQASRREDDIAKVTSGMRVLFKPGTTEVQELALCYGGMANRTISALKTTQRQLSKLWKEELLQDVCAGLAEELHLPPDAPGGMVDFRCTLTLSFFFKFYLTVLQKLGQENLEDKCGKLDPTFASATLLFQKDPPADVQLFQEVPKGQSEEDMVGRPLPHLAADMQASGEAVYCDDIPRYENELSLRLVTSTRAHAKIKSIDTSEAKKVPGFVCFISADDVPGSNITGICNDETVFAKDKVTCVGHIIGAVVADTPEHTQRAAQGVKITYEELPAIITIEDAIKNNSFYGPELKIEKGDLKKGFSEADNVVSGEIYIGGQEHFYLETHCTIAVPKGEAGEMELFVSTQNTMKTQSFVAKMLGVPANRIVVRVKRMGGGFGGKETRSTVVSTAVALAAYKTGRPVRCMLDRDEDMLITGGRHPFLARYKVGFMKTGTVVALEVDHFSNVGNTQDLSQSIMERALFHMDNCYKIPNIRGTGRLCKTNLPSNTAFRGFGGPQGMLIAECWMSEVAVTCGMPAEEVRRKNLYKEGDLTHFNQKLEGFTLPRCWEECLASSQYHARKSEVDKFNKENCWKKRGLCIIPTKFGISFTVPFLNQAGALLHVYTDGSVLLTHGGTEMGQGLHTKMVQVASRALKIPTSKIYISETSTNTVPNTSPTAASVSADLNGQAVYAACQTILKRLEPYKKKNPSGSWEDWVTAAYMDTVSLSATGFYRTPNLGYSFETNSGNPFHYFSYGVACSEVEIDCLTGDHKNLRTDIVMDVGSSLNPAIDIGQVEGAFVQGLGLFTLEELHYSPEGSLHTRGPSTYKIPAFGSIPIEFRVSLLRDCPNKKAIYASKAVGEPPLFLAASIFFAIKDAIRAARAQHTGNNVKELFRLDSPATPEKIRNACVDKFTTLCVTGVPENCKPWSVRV

| Ki [µM] | Structure (SMILES) |
| --- | --- |
| > 100 | CC1CSc2nc3[nH]c(=S)[nH]c3c(=O)n2C1 (configuration not stated) [2-Mercapto-7-methyl-7,8-dihydro-3H,6H-5-thia-1,3,4,8a-tetraaza-cyclopenta[b]naphthalen-9-one] |
| > 100 | CC1CSc2nc3[nH]c(=O)[nH]c3c(=O)n2C1 (configuration not stated) [2-Hydroxy-7-methyl-7,8-dihydro-3H,6H-5-thia-1,3,4,8a-tetraaza-cyclopenta[b]naphthalen-9-one] |
